Data set [1] in a line: Emission spectra of the probe itself. Format: physicochemical. To be noted: 1 μM, 0.1 M phosphate buffer pH 7.4, excitation 515 nm, Hitachi F2500, 700 V. How it is done:
Compound 10 obtained in Example 4 was dissolved in DMF to a concentration of 10 mM, and then the solution was diluted to 10 μM by 0.1 M phosphate buffer (pH 7.4). The fluorescence spectrum of the 10 μM solution of Compound 10 was measured using a Hitachi F2500 fluorescence spectrometer and the photomultiplier voltage was 700 V. The slit width was 2.5 nm for both excitation and emission. The measurement was carried out at an excitation wavelength of 520 nm. The results shown in FIG. 1 indicate that Compound 10 itself is non-fluorescent.
Compound 12 obtained in Example 5 was dissolved in DMF to a concentration of 1 mM, and then the solution was diluted to 1 μM by 0.1 M phosphate buffer (pH 7.4). The fluorescence spectrum of the 1 μM solution of Compound 12 was measured using a Hitachi F2500 fluorescence spectrometer and the photomultiplier voltage was 700 V. The slit width was 2.5 nm for both excitation and emission. The measurement was carried out at an excitation wavelength of 515 nm. The results shown in FIG. 4 indicate that Compound 12 itself is non-fluorescent.
Compound 14 obtained in Example 6 was dissolved in DMF to a concentration of 1 mM, and then the solution was diluted to 1 μM by 0.1 M phosphate buffer (pH 7.4). The fluorescence spectrum of the 1 μM solution of Compound 14 was measured using a Hitachi F2500 fluorescence spectrometer and the photomultiplier voltage was 700 V. The slit width was 2.5 nm for both excitation and emission. The measurement was carried out at an excitation wavelength of 515 nm. The results shown in FIG. 6 indicate that Compound 14 itself is non-fluorescent.
Compound 30 obtained in Example 7 was dissolved in DMF to a concentration of 10 mM, and then the solution was diluted to 10 μM by 0.1 M phosphate buffer (pH 7.4). The fluorescence spectrum of the 10 μM solution of Compound 30 was measured using a Hitachi F7000 fluorescence spectrometer and the photomultiplier voltage was 900 V. The slit width was 2.5 nm for both excitation and emission. The measurement was carried out at an excitation wavelength of 520 nm.

Data set [2] is described as follows: UV-visible absorption spectrum. Format: physicochemical. To be noted: 1 μM solution, pH 7.4 0.1 M phosphate buffer, 0.1% DMF. How it is done: Compound 10 obtained in Example 4 was dissolved in pH 7.4 0.1 M phosphate buffer containing 0.1% DMF as cosolvent to form a 10 μM solution.
Compound 12 obtained in Example 5 was dissolved in pH 7.4 0.1 M phosphate buffer containing 0.1% DMF as cosolvent to form a 1 μM solution.
Compound 14 obtained in Example 6 was dissolved in pH 7.4 0.1 M phosphate buffer containing 0.1% DMF as cosolvent to form a 1 μM solution.
Compound 30 obtained in Example 7 was dissolved in pH 7.4 0.1 M phosphate buffer containing 0.1% DMF as cosolvent to form a 10 μM solution. The absorption spectrum of the 10 μM solution of Compound 30 was measured.

The nature of data set [3]: Detection of hypochlorite: fluorescence spectra after addition of NaOCl. The note with it: 1 μM probe. The procedure:
Compound 14 obtained in Example 6 was dissolved in DMF to a concentration of 1 mM, and then the solution was diluted to 1 μM by 0.1 M potassium phosphate buffer (pH 7.4). Commercial bleach was the source of NaOCl. The concentration of NaOCl was determined by titration with sodium thiosulfate solution which was standardized by the titration with KlO3. Then NaOCl was added to provide final concentrations of 0, 2, 3, 4, 5, 6, 7, and 8 μM. Fluorescence spectra of the solutions were measured after 5 minutes under the same conditions as mentioned above.

Data set [4] is described as follows: Comparison of specificity with different ROS and RNS. To be noted: 1 μM probe in 0.1 M potassium phosphate buffer. How it is done: The reactivity of Compound 10 was compared toward different reactive oxygen species (ROS) and reactive nitrogen species (RNS), including OCl^−, H2O2, ^1O2, NO, O2^•−, ^•OH, ONOO^− and alkylperoxyl radical (ROO^•). Different reactive oxygen species and reactive nitrogen species were added independently to 5 mL of the solution of Compound 10 (10 μM in 0.1 M potassium phosphate buffer). The changes of fluorescence intensity before and after the treatment were measured. The reactive oxygen species and reactive nitrogen species were prepared as follows. • a. H2O2 (final 100 μM) was added and then stirred for 1 hour at 25° C. • b. (3-(1,4-Dihydro-1,4-epidioxy-1-naphthyl)propionic acid) (final 100 μM) was added and then stirred at 25° C. for 1 hour. • c. 2,2′-Azobis(2-amidinopropane)dihydrochloride (final 100 μM) was added and then stirred at 25° C. for 1 hour. • d. SNP (Sodium Nitroferricyanide (III) Dihydrate) (final 100 μM) was added and then stirred for 1 hour at 25° C. • e. O2^•− was generated by xanthine and xanthine oxidase. Xanthine oxidase was added firstly. After xanthine oxidase was dissolved, xanthine (final 100 μM) was added and the mixtures were stirred at 25° C. for 1 hour. • f. Ferrous chloride (final 10 μM) was added in the presence of 10 equivalences of H2O2 (100 μM). • g. ONOO^− (final 10 μM) was added at 25° C. • h. NaOCl (final 10 μM) was added at 25° C. Commercial bleach was the source of NaOCl.
The reactivity of Compound 12 was compared toward different reactive oxygen species (ROS) and reactive nitrogen species (RNS), including OCl^−, H2O2, ^1O2, NO, O2^•−, ^•OH, ONOO^− and alkylperoxyl radical (ROO^•). Different reactive oxygen species and reactive nitrogen species were added independently to 5 mL of the solution of Compound 12 (1 μM in 0.1 M potassium phosphate buffer). The changes of fluorescence intensity before and after the treatment were measured. The reactive oxygen species and reactive nitrogen species were prepared as follows: • i. H2O2 (final 100 μM) was added and then stirred for 1 hour at 25° C. • j. (3-(1,4-Dihydro-1,4-epidioxy-1-naphthyl)propionic acid) (final 100 μM) was added and then stirred at 25° C. for 1 hour. • k. 2,2′-Azobis(2-amidinopropane)dihydrochloride (final 100 μM) was added and then stirred at 25° C. for 1 hour. • l. SNP (Sodium Nitroferricyanide (III) Dihydrate) (final 100 μM) was added and then stirred for 1 hour at 25° C. • m. O2^•− was generated by xanthine and xanthine oxidase. Xanthine oxidase was added firstly. After xanthine oxidase was dissolved, xanthine (final 100 μM) was added and the mixtures were stirred at 25° C. for 1 hour. • n. Ferrous chloride (final 10 μM) was added in the presence of 10 equivalences of H2O2 (100 μM). • o. ONOO^− (final 10 μM) was added at 25° C. • p. NaOCl (final 10 μM) was added at 25° C. Commercial bleach was the source of NaOCl.
The reactivity of Compound 14 was compared toward different reactive oxygen species (ROS) and reactive nitrogen species (RNS), including OCl^−, H2O2, ^1O2, NO, O2^•−, ^•OH, ONOO^− and alkylperoxyl radical (ROO^•). Different reactive oxygen species and reactive nitrogen species were added independently to 5 mL of the corresponding solution of Compound 14 (1 μM in 0.1 M potassium phosphate buffer). The changes in fluorescence intensity before and after the treatment were measured. The reactive oxygen species and reactive nitrogen species were prepared as follows: • a. H2O2 (final 100 μM) was added and then stirred for 1 hour at 25° C. • b. (3-(1,4-Dihydro-1,4-epidioxy-1-naphthyl)propionic acid) (final 100 μM) was added and then stirred at 25° C. for 1 hour. • c. 2,2′-Azobis(2-amidinopropane)dihydrochloride (final 100 μM) was added and then stirred at 25° C. for 1 hour. • d. SNP (Sodium Nitroferricyanide (III) Dihydrate) (final 100 μM) was added and then stirred for 1 hour at 25° C. • e. O2^•− was generated by xanthine and xanthine oxidase. Xanthine oxidase was added firstly. […]

`CN(c1ccc(N)cc1)c1ccc2c(c1)Oc1cc(O)ccc1C21OC(=O)c2ccccc21` (stereo not drawn) [Compound 14]: in data set [1], the “fluorescence of the probe itself” value is recorded as “non-fluorescent”. Also, the absorption maximum result in data set [2] was “about 515 nm”. Also, the “fluorescence intensity at 535 nm with increasing concentration of hypochlorite” value in data set [3] (0.1 M potassium phosphate buffer pH 7.4) is “increases linearly”. The “fluorescence intensity after the addition of hypochlorite” value in data set [3] (NaOCl 0-8 μM, 0.1 M potassium phosphate buffer pH 7.4, after 5 minutes, excitation 515 nm) is “increase significantly”. Further, the “reactivity among ROS and RNS in an abiotic system” value in data set [4] is “much higher reactivity towards hypochlorite”. For the same molecule, in data set [4] (25° C.), the “fluorescence enhancement by hypochlorite compared with any other ROS and RNS” value was “much stronger fluorescence enhancement”.

Source of the values: US8114904B2, “Luminescence quenchers and fluorogenic probes for detection of reactive species” (Versitech Limited & Morningside Ventures Limited, priority 2008, dated 2012).
